According to US20190352341A1, “MODIFIED PEPTIDES AND THEIR USE FOR TREATING SYSTEMIC LUPUS ERYTHEMATOSUS” (IMMUPHARMA FRANCE SA, priority 2018, published 2019):
Values joined by “and” are separate entries in the source; they are usually repeats but may differ in a detail not shown here. Equal entries are not always repeated. Numbered stars: 1 amine (or outer) side, 2 acyl side, 3 side chain; on linkers, the order of the positions; unused ones are H or OH. Square brackets hold non-standard residues; d marks the D form. Peptide text beside a SMILES is read from it. ξ: configuration not given here. X1 = CSCC[C@H](NC(=N)[C@H](Cc1c[nH]cn1)N[*:1])C(=O)[*:2]; pS = N[C@@H](COP(=O)(O)O)C(=O)O; Ile(3ξ) = CCC(C)[C@H](N)C(=O)O

Tests used:
[1] = tested on: Balb/c mice; assay: 31-day HDM-induced asthma model, airway response to methacholine (Flexivent); type: in vivo, mouse; conditions: for Crs / Ers / Rrs: individual mice
Method: The aim of this study was to evaluate the effect of the P140 phosphopeptide administered systemically (intravenously) in a 31-day model of HDM-induced asthma in mice. The P140 phosphopeptide was solubilized in sterile water (Braun) and 10× concentrate sterile saline was added to adjust osmolarity to 300 mosm. Osmolarity was controlled with a micro osmometer (Löser, type 15) and validated (303 mosm). The P140 phosphopeptide was used in vivo at the dose of 4 mg/kg by intravenous (i.v.) routes. Control animals received equivalent volumes (2 ml/kg) of saline (Table 8).
Nine-week-old male Balb/c mice were sensitized by intranasal (i.n.) administration of HDM extract (Stallergenes): 1 μg in 25 μl saline on days 0, 1, 2, 3, 4, and 10 μg on days 14 and 21. Mice were challenged by i.n. administration of HDM (1 μg) and/or saline on days 28, 29 and 30. Mice were treated by i.v. injection (2 ml/kg) of P140 or solvent on day 25 (see FIG. 14).
Airway response to Methacholine (Flexivent®). On day 31, airway responses to PBS then methacholine were assessed using a forced oscillation technique (Flexivent®, SCIREQ, Montreal, Canada) as described (Daubeuf et al, Bioprotocol, 645, 2013). Mice were anesthetized with an intraperitoneal injection of xylasine (Rompun®; 1 mg/kg), followed fifteen minutes later by an intraperitoneal injection of pentobarbital sodium (3.64 mg/Kg). The trachea was exposed and an 18-gauge metal needle was inserted into the trachea. Airways were connected to a computer-controlled small animal ventilator, and quasi-sinusoidally ventilated with a tidal volume of 10 ml/Kg at a frequency of 150 breaths/min and a positive end-expiratory pressure of 2 cm H2O to achieve a mean respiratory volume close to that of spontaneous breathing. After baseline measurement, each mouse was challenged for 10 sec with an aerosol of PBS generated with an in-line nebulizer and administered directly through the ventilator. Then, aerosolized methacholine (MCh) at 50 mg/ml was administered for 10 sec. The effect of methacholine was calculated as the peak response, i.e. the mean of the three maximal values integrated for calculation of airway resistance (R, cm H20·s·mL^−1), elastance (E, cm H20·mL^−1) and compliance (C, mL·cm H20^−1).
All mice were sensitized to HDM on days 0, 1, 2, 3, 4, 14, 21, and challenged either with saline ([…]) or HDM (challenge with allergen). Results are presented as means±SEM. Differences between groups were tested for statistical significance using Student's t test for inflammatory cells and a two-way ANOVA followed by Bonferroni post-test for airway responses.

[2] = tested on: C57BL/6 mice; assay: DSS-induced mouse model of colonic inflammation; type: in vivo
Description: Normal mice (C57BL/6; 7 week-old; males) have received the P140 peptide ([…], iv route; 10 mice) or saline only (control group; 10 mice) at days −2 and −1. At day 0, dextran sodium sulfate (DSS; 2-3%) was administrated to induce the disease.
Animals were examined every day for body weight loss, stool consistency, diarrhea, and blood in the feces. The animals were sacrificed around day 14 or at any time if they are very sick (loss >25% body weight). Statistics: Mann-Whitney (exact)

[3] = tested on: MRL/lpr B cells; conditions: cited from earlier work
[4] = tested on: MRL/lpr mice; assay: MRL/lpr mouse model of Gougerot-Sjögren syndrome (salivary glands); type: in vivo
Method: In this study MRL/lpr female 11-12 week old mice were used with 10 mice per group for statistical analysis. Each mouse received a single injection by retro-orbital, 100 μg of peptide P140 of 100 μl in […] NaCl. After 5 days, the mouse blood was collected in heparinized tube and salivary glands (GSS) were removed and placed in Eppendorf tubes containing PBS pH 7.4.
The number of foci site (FS) is determined for each mouse. A focus is defined as an aggregate of 50 or more cells.
The level of inflammation SG is determined semiquantitatively by a scoring system (0-3 scale): Grade 0: no inflammatory cells; Grade 1: few perivascular inflammatory and periductal Infiltrates (<100 cells); Grade 2: moderate number of perivascular inflammatory and periductal Infiltrates (100-500 cells); Grade 3: extensive inflammation with inflammatory foci broad (>500 cells).
Cells of total salivary glands stained with fluorescently were labeled antibodies for 40 min at 4° C., Were Collected data by FACSCalibur.
The weight of salivary glands Was Measured after-excision. DNase I (1 mg/ml) and collagenase D (50 μg/ml) were used to digest the salivary glands. Total cell counts were evaluated after the digestion.
The MRL/lpr mice (10 mice per arm) were injected with peptide P140 (100 μl/mouse iv). Five days after injection the mice were sacrificed and SGs collected as indicated above. The tissue was cut by the cryostat sections of 5 μm. The sections were labeled with hematoxylin/eosin staining is the method most frequently used in tissue histology. The level of inflammation and the number of FS were determined (FIGS. 19 and 20). Representative pictures are from sample control group 4 and group Treated sample (Bar 500 μm).

[5] = HDM-challenged (HDM + P140), first of two unheaded values (presumably PBS)
[6] = HDM-challenged (HDM + P140), second of two unheaded values (presumably MCh 50 mg/mL)
[7] = chronic asthma (saline-challenged), methacholine 50 mg/ml, P140 i.v. 4 mg/kg day 25
[8] = saline-challenged (chronic asthma), first of two unheaded values (presumably PBS)
[9] = saline-challenged (chronic asthma), second of two unheaded values (presumably MCh 50 mg/mL)
[10] = P140 iv at days −2 and −1, DSS from day 0, vs saline group
[11] = 5 days after one single iv injection, flow cytometry

In the case of `CCC(C)[C@H](NC(=O)[C@H](Cc1ccccc1)NC(=O)[C@H](C)NC(=O)[C@H](Cc1ccc(O)cc1)NC(=O)CNC(=O)[C@H](CCCNC(=N)N)NC(=O)[C@@H]1CCCN1C(=O)[C@H](CCCCN)NC(=O)CNC(=O)[C@H](COP(=O)(O)O)NC(=O)[C@H](CCCNC(=N)N)NC(=O)[C@H](CCCCN)NC(=O)[C@H](CO)NC(=O)[C@H](Cc1ccc(O)cc1)NC(=O)[C@@H](NC(=O)[C@H](CCSC)NC(=N)[C@H](Cc1c[nH]cn1)NC(=O)[C@@H](NC(=O)[C@@H](N)CCCNC(=N)N)C(C)CC)C(C)C)C(=O)N[C@@H](CCC(=O)O)C(=O)N[C@@H](Cc1ccc(O)cc1)C(=O)O` (stereo partly shown) [Compound P140] (H-R[Ile(3ξ)][X1]VYSKR[pS]GKPRGYAF[Ile(3ξ)]EY-OH), the Crs [1, 5] is reported as 0.0554 mL/cmH2O and 0.0514 mL/cmH2O and 0.0528 mL/cmH2O and 0.0566 mL/cmH2O and 0.0492 mL/cmH2O and 0.0458 mL/cmH2O and 0.0552 mL/cmH2O and 0.0589 mL/cmH2O, the Ers [1, 5] is reported as 18.0582 cmH2O/mL and 19.4433 cmH2O/mL and 18.9515 cmH2O/mL and 17.6781 cmH2O/mL and 20.3326 cmH2O/mL and 21.8367 cmH2O/mL and 18.1106 cmH2O/mL and 16.9723 cmH2O/mL and the Rrs [1, 5] is reported as 0.6405 cmH2O · s/mL and 0.6092 cmH2O · s/mL and 0.7972 cmH2O · s/mL and 0.5185 cmH2O · s/mL and 0.6804 cmH2O · s/mL and 0.6365 cmH2O · s/mL and 0.4744 cmH2O · s/mL and 0.5456 cmH2O · s/mL. For the same molecule, the Crs [1, 6] was 0.0146 mL/cmH2O and 0.0075 mL/cmH2O and 0.0062 mL/cmH2O and 0.0065 mL/cmH2O and 0.0101 mL/cmH2O and 0.0060 mL/cmH2O and 0.0138 mL/cmH2O and 0.0081 mL/cmH2O, the Ers [1, 6] was 79.8018 cmH2O/mL and 148.4985 cmH2O/mL and 188.1151 cmH2O/mL and 219.9720 cmH2O/mL and 125.7688 cmH2O/mL and 173.4582 cmH2O/mL and 72.6033 cmH2O/mL and 131.8035 cmH2O/mL and the Rrs [1, 6] was 5.6421 cmH2O · s/mL and 10.3886 cmH2O · s/mL and 11.9654 cmH2O · s/mL and 10.5419 cmH2O · s/mL and 8.8810 cmH2O · s/mL and 13.0087 cmH2O · s/mL and 7.0705 cmH2O · s/mL and 9.7688 cmH2O · s/mL. For the same molecule, the “Airway resistance, elastance or compliance” value ([1]; allergen (HDM)-challenged mice, vs solvent group) was “no effect”, the “Airway compliance, change vs solvent group” value [1, 7] was “+115%” and the “Elastance, change vs solvent group” value [1, 7] was −65%. The “Airway resistance, change vs solvent group” value ([1]; chronic asthma (saline-challenged), methacholine 50 mg/ml, P140 i.v. 4 mg/kg day 25, non-significant) was −42%, the Crs [1, 8] was 0.0545 mL/cmH2O and 0.0498 mL/cmH2O and 0.0569 mL/cmH2O and 0.0541 mL/cmH2O and 0.0650 mL/cmH2O and the Ers [1, 8] was 18.3671 cmH2O/mL and 20.0811 cmH2O/mL and 17.5777 cmH2O/mL and 18.4893 cmH2O/mL and 15.3975 cmH2O/mL. For the same molecule, the Rrs [1, 8] was 0.5590 cmH2O · s/mL and 0.8945 cmH2O · s/mL and 0.5926 cmH2O · s/mL and 0.8074 cmH2O · s/mL and 0.4418 cmH2O · s/mL, the Crs [1, 9] was 0.0304 mL/cmH2O and 0.0132 mL/cmH2O and 0.0380 mL/cmH2O and 0.0238 mL/cmH2O and 0.0370 mL/cmH2O and the Ers [1, 9] was 33.3720 cmH2O/mL and 84.9688 cmH2O/mL and 26.3200 cmH2O/mL and 42.4174 cmH2O/mL and 28.6047 cmH2O/mL. For the same molecule, the Rrs [1, 9] was 4.1067 cmH2O · s/mL and 9.4002 cmH2O · s/mL and 2.2229 cmH2O · s/mL and 4.0926 cmH2O · s/mL and 2.1844 cmH2O · s/mL, the “Baseline airway resistance, elastance and compliance after PBS inhalation” value ([1]; saline-challenged mice, P140 i.v. 4 mg/kg day 25, vs solvent-treated mice) was “no effect on any parameter” and the Body weight [2, 10] was “No difference”. For the same molecule, the Colon size [2, 10] was “significant increase”, the “DAI (disease activity index)” value [2, 10] was “Little difference” and the “Day at which blood appeared in the feces” value ([2]; control groups day +6) was “+8 day”. For the same molecule, the “Autophagy markers SQSTM1 and MAP1LC3 in MRL/lpr B cells” value ([3]; after P140 treatment (Page et al., 2011)) was “accumulation”, the “Expression of HSPA8 and LAMP-2A in MRL/lpr B cells” value ([3]; after treating mice with P140 peptide (Page et al., 2011; Macri et al.)) was “down-regulated” and the “Lymphocytic infiltration in the SGs” value ([4]; 5 days after one single administration, hematoxylin/eosin) was “significantly reduced”. For the same molecule, the “Weight of salivary glands (SGs)” value ([4]; 5 days after one single iv injection) was “no statistically significant effect”, the “CD4+ T cells in SGs” value [4, 11] was “decreased” and the “Total number of B cells in SGs” value [4, 11] was “no statistically significant effect”. The “Total number of cells present in the SGs” value [4, 11] was “no apparent effect”.
